According to ChEMBL document CHEMBL5465560, “Selectivity Literature for EUbOPEN Chemogenomic Library” (2024):
Values belong to the molecule of their own block, whether it stands above or below them.

Legend:
Endothelin-1 receptor = Endothelin-1 receptor (Homo sapiens, UniProt P25101); experiment: Selectivity interaction (Endothelin A receptor binding assay, human recombinant ) EUB0000877a EDNRA
[1] = molecular target: Glycogen synthase kinase-3 alpha (Homo sapiens, UniProt P49840); experiment: Selectivity interaction (Upstate Kinase Profiler service (Millipore)) EUB0000056c GSK3A; conditions: at 1 µM
Glycogen synthase kinase-3 alpha, sequence (P49840 2-483 limits assumed): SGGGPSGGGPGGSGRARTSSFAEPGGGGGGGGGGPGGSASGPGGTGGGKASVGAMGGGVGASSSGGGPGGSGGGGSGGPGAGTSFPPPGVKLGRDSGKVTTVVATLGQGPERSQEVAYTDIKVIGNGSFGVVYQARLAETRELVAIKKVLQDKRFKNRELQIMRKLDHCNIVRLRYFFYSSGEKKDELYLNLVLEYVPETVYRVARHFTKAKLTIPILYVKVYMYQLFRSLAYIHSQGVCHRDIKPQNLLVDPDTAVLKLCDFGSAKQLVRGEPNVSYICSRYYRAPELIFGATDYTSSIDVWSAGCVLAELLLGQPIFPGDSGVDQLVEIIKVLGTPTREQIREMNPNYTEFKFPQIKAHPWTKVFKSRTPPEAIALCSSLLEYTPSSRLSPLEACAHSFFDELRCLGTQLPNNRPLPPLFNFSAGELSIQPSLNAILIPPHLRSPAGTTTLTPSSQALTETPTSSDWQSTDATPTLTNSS

[2] = molecular target: Ribosomal protein S6 kinase alpha-1 (Homo sapiens, UniProt Q15418); experiment: Selectivity interaction (ActivX KiNativ screen (kinase selectivity in THP-1 cell lysates)) EUB0000639a RPS6KA1; assay type: subcellular; conditions: lysate, at 0.04 µM
Ribosomal protein S6 kinase alpha-1, sequence (Q15418 whole entry): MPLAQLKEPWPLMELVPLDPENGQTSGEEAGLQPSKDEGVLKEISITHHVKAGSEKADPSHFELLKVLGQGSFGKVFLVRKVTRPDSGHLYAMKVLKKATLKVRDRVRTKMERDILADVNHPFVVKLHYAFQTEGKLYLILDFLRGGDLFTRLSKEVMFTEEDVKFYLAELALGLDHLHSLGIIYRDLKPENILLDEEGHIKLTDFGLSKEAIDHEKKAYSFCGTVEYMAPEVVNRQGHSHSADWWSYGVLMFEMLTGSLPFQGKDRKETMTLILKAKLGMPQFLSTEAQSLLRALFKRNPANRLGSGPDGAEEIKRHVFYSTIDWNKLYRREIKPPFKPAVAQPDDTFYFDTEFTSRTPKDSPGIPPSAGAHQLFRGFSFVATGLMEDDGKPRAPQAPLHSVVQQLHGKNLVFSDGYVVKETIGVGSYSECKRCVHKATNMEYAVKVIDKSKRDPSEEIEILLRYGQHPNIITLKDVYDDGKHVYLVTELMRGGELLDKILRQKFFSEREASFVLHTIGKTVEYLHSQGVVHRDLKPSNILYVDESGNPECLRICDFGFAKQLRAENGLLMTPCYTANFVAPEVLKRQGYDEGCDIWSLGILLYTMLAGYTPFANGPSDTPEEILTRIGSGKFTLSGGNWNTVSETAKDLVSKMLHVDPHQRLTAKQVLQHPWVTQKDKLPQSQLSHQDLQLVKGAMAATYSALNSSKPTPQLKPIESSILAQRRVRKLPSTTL

[3] = molecular target: T1, Serine/threonine-protein kinase D3 (Homo sapiens) (UniProt O94806); experiment: Selectivity interaction (ActivX KiNativ screen (kinase selectivity in THP-1 cell lysates)) EUB0000639a PRKD3; assay type: subcellular; conditions: lysate
T1 sequence (whole entry): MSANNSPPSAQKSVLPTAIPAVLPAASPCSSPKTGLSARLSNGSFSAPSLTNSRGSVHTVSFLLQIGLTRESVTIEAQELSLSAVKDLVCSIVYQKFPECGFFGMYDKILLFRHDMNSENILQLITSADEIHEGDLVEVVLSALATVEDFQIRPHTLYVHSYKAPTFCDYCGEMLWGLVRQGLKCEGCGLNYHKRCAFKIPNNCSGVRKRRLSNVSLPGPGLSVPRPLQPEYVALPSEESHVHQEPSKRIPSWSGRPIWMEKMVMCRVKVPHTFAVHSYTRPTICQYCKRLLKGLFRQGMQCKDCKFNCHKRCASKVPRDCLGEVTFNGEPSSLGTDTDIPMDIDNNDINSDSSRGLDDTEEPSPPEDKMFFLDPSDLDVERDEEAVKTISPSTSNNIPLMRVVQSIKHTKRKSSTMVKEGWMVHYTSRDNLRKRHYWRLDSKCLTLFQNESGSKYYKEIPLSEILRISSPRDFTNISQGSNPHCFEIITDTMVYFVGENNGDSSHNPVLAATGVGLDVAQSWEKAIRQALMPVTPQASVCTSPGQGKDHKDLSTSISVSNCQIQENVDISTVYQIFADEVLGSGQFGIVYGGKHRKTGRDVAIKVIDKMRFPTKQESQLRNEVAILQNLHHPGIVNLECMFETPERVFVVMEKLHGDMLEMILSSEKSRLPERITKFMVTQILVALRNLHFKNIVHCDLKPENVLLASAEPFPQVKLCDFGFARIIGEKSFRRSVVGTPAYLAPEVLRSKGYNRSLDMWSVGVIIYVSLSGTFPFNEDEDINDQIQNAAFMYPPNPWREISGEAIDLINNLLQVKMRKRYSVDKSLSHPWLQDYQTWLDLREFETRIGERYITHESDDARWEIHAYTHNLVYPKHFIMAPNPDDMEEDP

[4] = molecular target: T2, Phosphatidylinositol 4,5-bisphosphate 3-kinase catalytic subunit delta isoform (Homo sapiens) (UniProt O00329); experiment: Selectivity interaction (ActivX KiNativ screen (kinase selectivity in THP-1 cell lysates)) EUB0000639a PIK3CD; assay type: subcellular; conditions: lysate, at 5 µM
T2 sequence (whole entry): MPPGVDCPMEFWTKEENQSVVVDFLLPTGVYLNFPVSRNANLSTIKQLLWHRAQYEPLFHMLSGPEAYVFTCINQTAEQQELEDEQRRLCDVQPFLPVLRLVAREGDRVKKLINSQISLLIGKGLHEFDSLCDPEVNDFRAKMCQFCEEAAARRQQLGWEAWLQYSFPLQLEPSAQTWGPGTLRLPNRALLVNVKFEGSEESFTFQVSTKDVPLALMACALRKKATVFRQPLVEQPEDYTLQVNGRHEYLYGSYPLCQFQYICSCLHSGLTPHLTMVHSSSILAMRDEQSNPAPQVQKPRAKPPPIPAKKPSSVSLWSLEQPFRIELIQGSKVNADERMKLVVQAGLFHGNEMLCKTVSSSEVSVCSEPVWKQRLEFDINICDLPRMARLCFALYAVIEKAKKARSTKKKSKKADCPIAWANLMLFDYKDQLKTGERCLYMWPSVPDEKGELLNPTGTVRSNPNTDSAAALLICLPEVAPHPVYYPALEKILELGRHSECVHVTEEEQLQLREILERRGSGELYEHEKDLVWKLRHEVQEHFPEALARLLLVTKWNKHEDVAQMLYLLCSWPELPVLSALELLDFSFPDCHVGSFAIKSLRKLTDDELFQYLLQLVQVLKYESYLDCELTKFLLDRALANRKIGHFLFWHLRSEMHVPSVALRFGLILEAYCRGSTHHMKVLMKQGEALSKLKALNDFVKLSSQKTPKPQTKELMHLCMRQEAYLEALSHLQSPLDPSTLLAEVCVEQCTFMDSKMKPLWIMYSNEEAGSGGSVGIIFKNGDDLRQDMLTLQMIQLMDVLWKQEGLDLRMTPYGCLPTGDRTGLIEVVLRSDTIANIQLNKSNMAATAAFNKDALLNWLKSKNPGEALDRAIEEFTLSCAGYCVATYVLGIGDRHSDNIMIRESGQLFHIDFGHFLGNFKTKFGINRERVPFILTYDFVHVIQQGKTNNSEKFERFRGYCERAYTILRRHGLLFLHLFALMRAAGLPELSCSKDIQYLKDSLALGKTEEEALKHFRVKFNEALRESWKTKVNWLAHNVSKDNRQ

[5] = molecular target: Cyclin-dependent kinase 11B (Homo sapiens) (UniProt P21127); experiment: Selectivity interaction (Ambit KINOMEscan and KiNATiv profiling in Jurkat cells) EUB0000090b CDK11B; assay type: cell-based; conditions: at 1 µM
Cyclin-dependent kinase 11B (Homo sapiens), sequence (P21127 whole entry): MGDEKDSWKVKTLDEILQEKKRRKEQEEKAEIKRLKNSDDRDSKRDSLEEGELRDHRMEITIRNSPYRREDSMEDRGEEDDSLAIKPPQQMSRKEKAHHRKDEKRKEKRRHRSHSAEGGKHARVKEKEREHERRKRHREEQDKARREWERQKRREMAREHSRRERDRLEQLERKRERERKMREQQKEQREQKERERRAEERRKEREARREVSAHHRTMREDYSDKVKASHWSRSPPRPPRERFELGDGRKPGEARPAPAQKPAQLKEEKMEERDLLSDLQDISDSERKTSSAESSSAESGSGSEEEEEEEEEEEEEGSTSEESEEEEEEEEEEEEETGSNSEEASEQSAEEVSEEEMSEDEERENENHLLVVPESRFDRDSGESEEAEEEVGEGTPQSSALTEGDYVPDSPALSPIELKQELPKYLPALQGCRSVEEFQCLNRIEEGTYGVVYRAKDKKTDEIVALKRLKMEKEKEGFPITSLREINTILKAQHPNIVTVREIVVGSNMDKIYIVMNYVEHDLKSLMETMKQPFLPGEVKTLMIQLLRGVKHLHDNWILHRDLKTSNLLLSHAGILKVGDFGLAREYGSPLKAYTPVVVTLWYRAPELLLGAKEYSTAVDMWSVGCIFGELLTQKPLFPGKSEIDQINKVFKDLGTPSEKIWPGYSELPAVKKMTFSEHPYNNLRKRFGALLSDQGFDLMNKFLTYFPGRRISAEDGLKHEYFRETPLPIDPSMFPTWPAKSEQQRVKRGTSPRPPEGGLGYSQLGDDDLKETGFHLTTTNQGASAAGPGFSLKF

[6] = molecular target: T3, Histone-arginine methyltransferase CARM1 (Homo sapiens) (UniProt Q86X55); conditions: KMS-27, at 3 µM
T3 sequence (whole entry): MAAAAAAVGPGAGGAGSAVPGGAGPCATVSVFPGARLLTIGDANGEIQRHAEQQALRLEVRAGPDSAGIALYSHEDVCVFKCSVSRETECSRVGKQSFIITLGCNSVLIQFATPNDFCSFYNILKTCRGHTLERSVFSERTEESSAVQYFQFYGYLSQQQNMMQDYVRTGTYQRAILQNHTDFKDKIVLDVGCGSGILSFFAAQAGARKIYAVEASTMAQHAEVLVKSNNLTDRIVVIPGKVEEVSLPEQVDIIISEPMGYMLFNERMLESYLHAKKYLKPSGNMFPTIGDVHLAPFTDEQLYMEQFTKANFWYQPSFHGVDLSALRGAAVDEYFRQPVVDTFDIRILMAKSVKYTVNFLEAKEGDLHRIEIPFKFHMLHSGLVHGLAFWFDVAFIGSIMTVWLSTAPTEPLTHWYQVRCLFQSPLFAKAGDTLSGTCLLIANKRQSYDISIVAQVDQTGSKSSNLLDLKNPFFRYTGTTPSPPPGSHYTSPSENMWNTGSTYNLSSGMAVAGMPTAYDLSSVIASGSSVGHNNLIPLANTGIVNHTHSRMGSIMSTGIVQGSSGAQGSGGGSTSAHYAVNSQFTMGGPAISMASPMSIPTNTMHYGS

Endothelin-1 receptor, sequence (P25101 whole entry): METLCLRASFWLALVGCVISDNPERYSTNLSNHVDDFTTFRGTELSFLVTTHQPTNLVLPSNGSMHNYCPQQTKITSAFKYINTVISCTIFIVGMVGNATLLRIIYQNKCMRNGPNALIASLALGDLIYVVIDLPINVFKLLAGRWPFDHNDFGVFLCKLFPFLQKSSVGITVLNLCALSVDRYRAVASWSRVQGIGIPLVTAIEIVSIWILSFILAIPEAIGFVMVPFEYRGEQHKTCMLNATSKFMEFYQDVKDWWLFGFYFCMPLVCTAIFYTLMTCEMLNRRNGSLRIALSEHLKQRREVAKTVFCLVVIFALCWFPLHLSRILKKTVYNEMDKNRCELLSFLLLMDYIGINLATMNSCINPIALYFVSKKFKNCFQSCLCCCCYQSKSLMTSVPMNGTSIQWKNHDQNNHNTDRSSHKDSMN

IC50 (Endothelin-1 receptor): > 30 µM
Structure (SMILES): CCC(=O)N1CC[C@H](Nc2ncnc3c2CN(c2cnc(OC)c(C(F)(F)F)c2)CC3)C1 [LENIOLISIB]

% of inhibition [1]: 2%
Structure (SMILES): Cc1ccc(-c2ccc3c(ccc4sc5c(c43)NC[C@@H](C)NC5=O)n2)cn1

% of inhibition [2]: -6.2% | % of inhibition ([3]; at 0.01 µM): -8.3% | % of inhibition ([3]; at 0.04 µM): -5.9% | % of inhibition ([3]; at 0.2 µM): -13.7% | % of inhibition ([3]; at 1 µM): 3.6% | % of inhibition ([3]; at 5 µM): -22.1% | % of inhibition [4]: 18.5%
Structure (SMILES): CC[C@@H]1[C@H](F)C(=O)N[C@@H]1COc1nccc2cc(C(N)=O)c(OC)cc12 [ZIMLOVISERTIB]

Structure (SMILES): CN(C)C/C=C/C(=O)Nc1ccc(C(=O)N2CCCC(Nc3ncc(Cl)c(-c4c[nH]c5ccccc45)n3)C2)cc1 (stereo unspecified)
% of control [5]: 100%

% of growth rate [6]: -17.2%
Structure (SMILES): CNCCN1CCC(c2cc(CN(C)C(=O)c3cccc(Oc4ccccc4)c3)ccn2)CC1
